{"source": "patent US5196512A", "about": "(priority 1989, dated 1993)", "key": {"T cell clones": {"test_system": "T cell clones", "assay_type": "cell-based, human"}, "[1]": {"test_system": "Peripheral blood mononucleate cells (PBMC)", "assay_type": "cell-based, human"}, "[2]": {"test_system": "T cell clones specific for TT3", "assay_type": "cell-based, human"}, "[3]": {"test_system": "T cell clones specific for TT3", "assay_type": "cell-based, human", "remark": "listed apart in the source"}, "[4]": {"test_system": "C57BL/6, CBA and DBA/2 mice", "conditions": "mouse, in vivo"}, "lymph node cells": {"test_system": "lymph node cells", "assay_type": "cell-based, mouse"}, "[5]": {"test_system": "CBA, DBA/2 and C57BL/6 mice", "conditions": "CBA and DBA/2 mice; n between 3 and 40; cited from earlier work"}}, "note": "Ends that are not written are not given here.", "data": [{"substance": "FNNFTVSFWLRVPK [TT200]", "values": [{"measurement": "recognition of the epitope by restricted T cell clones", "setting": "T cell clones", "result": "recognised by all other DR and DP allele restricted clones"}]}, {"substance": "FNNFTVSFWLRVPKVSASHLE [TT3]", "values": [{"measurement": "in vitro response of PBMC of different HLA-typized individuals immunized with the tetanus toxin", "setting": "[1]", "result": "responded in vitro"}, {"measurement": "share of all the T cells specific for the tetanus toxoid (TT)", "setting": "[1]", "result": "≤ 5", "unit": "%"}, {"measurement": "proliferation of all the isolated clones in response to antigen presented by autologous APC cells", "setting": "[2]", "result": "proliferated"}, {"measurement": "Independent restriction (class II MHC alleles able to present the peptide to at least one T cell clone)", "setting": "[3]", "result": "DR5 and DR9 and DR7 and DP2 and DP4 and DP? and DR5JVM/DP4"}, {"measurement": "anti-TT3 antibody count after boosting", "setting": "[4]", "result": "increased"}, {"measurement": "anti-TT3 antibody count with IFA compared with CFA", "setting": "[4]", "result": "same values"}, {"measurement": "proliferative T cell response of lymph node cells", "setting": "lymph node cells", "result": "good proliferative T cell response"}]}, {"substance": "H-(Asn-Ala-Asn-Pro)n -OH (H-NANP-OH; also: repeated n times) [(NANP)n]", "values": [{"measurement": "anti-CSP antibody response", "setting": "[5]", "result": "not able to induce"}]}, {"substance": "tetanus toxoid [reference compound]", "values": [{"measurement": "proliferation of all the isolated clones in response to antigen presented by autologous APC cells", "setting": "[2]", "result": "proliferated"}]}]}
